Test results: ChEMBL document CHEMBL6078699, “Constrained β-Hairpins Targeting the EphA4 Ligand Binding Domain” (J Med Chem, 2024)
Active and inactive are the calls of the source. The calls are words filed in the database; no cut-off is given here. Numbered stars: 1 amine (or outer) side, 2 acyl side, 3 side chain; on linkers, the order of the positions; unused ones are H or OH. Square brackets hold non-standard residues; d marks the D form. Peptide text beside a SMILES is read from it. Azetidine3carboxylic = O=C(C1CN([*:1])C1)[*:2]; βPro(3R) = O=C([C@@H]1CCN([*:1])C1)[*:2]; βPro(3S) = O=C([C@H]1CCN([*:1])C1)[*:2]; X2 = O=C([C@H]1CCCN([*:1])C1)[*:2]; βAla = NCCC(=O)O

Assays:
[1] = biological target: Ephrin type-A receptor 4 (Homo sapiens) (UniProt P54764); experiment: Binding affinity to EphA4-LBD (unknown origin) at 40 uM by isothermal titration calorimetry
Ephrin type-A receptor 4 (Homo sapiens), sequence (P54764 whole entry, the tested form may be a part): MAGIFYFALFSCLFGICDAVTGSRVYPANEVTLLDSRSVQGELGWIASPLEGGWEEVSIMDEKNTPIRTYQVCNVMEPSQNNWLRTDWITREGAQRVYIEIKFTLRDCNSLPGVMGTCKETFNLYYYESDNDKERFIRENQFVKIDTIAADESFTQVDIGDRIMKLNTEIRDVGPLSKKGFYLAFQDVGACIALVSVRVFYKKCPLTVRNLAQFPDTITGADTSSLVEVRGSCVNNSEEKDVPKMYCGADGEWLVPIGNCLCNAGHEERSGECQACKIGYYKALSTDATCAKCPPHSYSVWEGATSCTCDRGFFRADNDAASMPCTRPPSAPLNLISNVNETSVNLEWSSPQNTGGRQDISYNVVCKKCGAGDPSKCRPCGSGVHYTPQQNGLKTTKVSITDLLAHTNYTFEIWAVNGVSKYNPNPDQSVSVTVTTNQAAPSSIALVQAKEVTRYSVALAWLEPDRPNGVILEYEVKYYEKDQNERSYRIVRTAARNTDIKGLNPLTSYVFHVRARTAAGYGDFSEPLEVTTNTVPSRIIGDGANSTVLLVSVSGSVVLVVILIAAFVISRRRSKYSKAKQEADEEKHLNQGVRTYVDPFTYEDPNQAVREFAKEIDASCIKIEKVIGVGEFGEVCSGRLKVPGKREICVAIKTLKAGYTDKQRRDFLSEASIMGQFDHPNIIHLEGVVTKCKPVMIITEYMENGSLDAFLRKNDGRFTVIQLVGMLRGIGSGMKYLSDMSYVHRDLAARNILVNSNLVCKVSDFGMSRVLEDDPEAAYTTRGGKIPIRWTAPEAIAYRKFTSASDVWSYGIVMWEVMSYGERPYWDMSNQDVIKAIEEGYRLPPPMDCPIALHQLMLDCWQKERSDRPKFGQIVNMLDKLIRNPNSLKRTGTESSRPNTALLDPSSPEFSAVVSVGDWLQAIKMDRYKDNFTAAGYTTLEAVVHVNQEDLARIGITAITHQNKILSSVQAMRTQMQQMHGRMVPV

[2] = biological target: Ephrin type-A receptor 4 (Mus musculus) (UniProt Q03137); experiment: Induction of EphA4 phosphorylation in C57BL/6 mouse Primary cortical neuron at 1 to 10 uM incubated for 30 mins by immunoprecipitation based Western blot analysis; format: cell-based; conditions: dose 1-10 µM
Ephrin type-A receptor 4 (Mus musculus), sequence (Q03137 whole entry): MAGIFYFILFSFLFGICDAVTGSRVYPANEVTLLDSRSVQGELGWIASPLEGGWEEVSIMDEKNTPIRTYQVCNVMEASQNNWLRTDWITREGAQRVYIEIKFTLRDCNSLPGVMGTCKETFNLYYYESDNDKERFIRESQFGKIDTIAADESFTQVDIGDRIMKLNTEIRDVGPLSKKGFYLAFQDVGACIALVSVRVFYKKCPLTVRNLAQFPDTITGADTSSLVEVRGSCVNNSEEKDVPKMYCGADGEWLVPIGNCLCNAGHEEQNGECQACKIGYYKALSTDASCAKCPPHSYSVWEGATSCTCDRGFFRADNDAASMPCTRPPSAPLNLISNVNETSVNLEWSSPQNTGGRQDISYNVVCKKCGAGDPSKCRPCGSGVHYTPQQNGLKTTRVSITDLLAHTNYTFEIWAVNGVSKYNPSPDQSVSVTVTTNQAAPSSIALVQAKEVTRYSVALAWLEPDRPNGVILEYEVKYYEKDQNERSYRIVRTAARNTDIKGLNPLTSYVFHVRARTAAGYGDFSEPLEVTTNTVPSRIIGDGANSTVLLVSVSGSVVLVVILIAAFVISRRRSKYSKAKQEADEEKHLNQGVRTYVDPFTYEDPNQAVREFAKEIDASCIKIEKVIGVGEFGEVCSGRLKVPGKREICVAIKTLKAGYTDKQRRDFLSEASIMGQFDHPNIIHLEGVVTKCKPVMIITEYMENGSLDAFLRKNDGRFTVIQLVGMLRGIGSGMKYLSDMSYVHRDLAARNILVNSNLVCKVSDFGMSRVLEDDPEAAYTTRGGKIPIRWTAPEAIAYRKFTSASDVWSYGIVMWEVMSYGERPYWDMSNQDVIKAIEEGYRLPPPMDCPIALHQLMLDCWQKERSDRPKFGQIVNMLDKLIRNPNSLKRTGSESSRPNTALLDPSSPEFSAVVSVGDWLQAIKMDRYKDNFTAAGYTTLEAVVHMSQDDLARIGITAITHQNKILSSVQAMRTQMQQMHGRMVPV

Row | SMILES | Activity [1] | Activity [2]
1 | CC(C)[C@H](NC(=O)[C@H](C)NC(=O)[C@H](Cc1ccc(O)cc1)NC(=O)[C@@H]1CCCN1C(=O)CCN)C(=O)N[C@@H](Cc1ccc(O)cc1)C(=O)N[C@@H](CCCNC(=N)N)C(=O)N1CC[C@H]1C(=O)N[C@@H](CO)C(=O)N[C@@H](Cc1c[nH]c2ccccc12)C(=O)N[C@@H](CO)C(=O)N[C@@H](C)C(N)=O | inactive | –
2 | CC(C)[C@H](NC(=O)[C@H](C)NC(=O)[C@H](Cc1ccc(O)cc1)NC(=O)[C@@H]1CCCN1C(=O)CCN)C(=O)N[C@@H](Cc1ccc(O)cc1)C(=O)N[C@@H](CCCNC(=N)N)C(=O)N1CC[C@H](C(=O)N[C@@H](CO)C(=O)N[C@@H](Cc2c[nH]c3ccccc23)C(=O)N[C@@H](CO)C(=O)N[C@@H](C)C(N)=O)C1 (H-[βAla]PYAVYR[βPro(3S)]SWSA-NH2) | inactive | –
3 | CC(C)[C@H](NC(=O)[C@H](C)NC(=O)[C@H](Cc1ccc(O)cc1)NC(=O)[C@@H]1CCCN1C(=O)CCN)C(=O)N[C@@H](Cc1ccc(O)cc1)C(=O)N[C@@H](CCCNC(=N)N)C(=O)N1CCC[C@H](C(=O)N[C@@H](CO)C(=O)N[C@@H](Cc2c[nH]c3ccccc23)C(=O)N[C@@H](CO)C(=O)N[C@@H](C)C(N)=O)C1 (H-[βAla]PYAVYR[X2]SWSA-NH2) | inactive | –
4 | CC(C)[C@H](NC(=O)[C@H](C)NC(=O)[C@H](Cc1ccc(O)cc1)NC(=O)[C@@H]1CCCN1C(=O)CCN)C(=O)N[C@@H](Cc1ccc(O)cc1)C(=O)N[C@@H](CCCNC(=N)N)C(=O)N1CC[C@@H](C(=O)N[C@@H](CO)C(=O)N[C@@H](Cc2c[nH]c3ccccc23)C(=O)N[C@@H](CO)C(=O)N[C@@H](C)C(N)=O)C1 (H-[βAla]PYAVYR[βPro(3R)]SWSA-NH2) | inactive | –
5 | CC(C)[C@H](NC(=O)[C@H](C)NC(=O)[C@H](Cc1ccc(O)cc1)NC(=O)[C@@H]1CCCN1C(=O)CCN)C(=O)N[C@@H](Cc1ccc(O)cc1)C(=O)N[C@@H](CCCNC(=N)N)C(=O)N1CC[C@@H]1C(=O)N[C@@H](CO)C(=O)N[C@@H](Cc1c[nH]c2ccccc12)C(=O)N[C@@H](CO)C(=O)N[C@@H](C)C(N)=O | inactive | –

Second part, the molecule after the results:

Row | Activity [1] | Activity [2] | SMILES
6 | inactive | – | CC(C)[C@H](NC(=O)[C@H](C)NC(=O)[C@H](Cc1ccc(O)cc1)NC(=O)[C@@H]1CCCN1C(=O)CCN)C(=O)N[C@@H](Cc1ccc(O)cc1)C(=O)N[C@@H](CCCNC(=N)N)C(=O)N1CC(C(=O)N[C@@H](CO)C(=O)N[C@@H](Cc2c[nH]c3ccccc23)C(=O)N[C@@H](CO)C(=O)N[C@@H](C)C(N)=O)C1 (H-[βAla]PYAVYR[Azetidine3carboxylic]SWSA-NH2)
7 | inactive | – | CC(C)[C@H](NC(=O)[C@H](C)NC(=O)[C@H](Cc1ccc(O)cc1)NC(=O)[C@@H]1CCCN1C(=O)CCN)C(=O)N[C@@H](Cc1ccc(O)cc1)C(=O)N[C@@H](CCCNC(=N)N)C(=O)N[C@H]1CC[C@@H]1C(=O)N[C@H](CO)C(=O)N[C@@H](Cc1c[nH]c2ccccc12)C(=O)N[C@@H](CO)C(=O)N[C@@H](C)C(N)=O
8 | – | inactive | CC(C)[C@H](NC(=O)[C@H](CS)NC(=O)[C@H](Cc1ccc(O)cc1)NC(=O)[C@@H]1CCCN1C(=O)CCN)C(=O)N[C@@H](Cc1ccc(O)cc1)C(=O)N[C@@H](CCCNC(=N)N)C(=O)NCCC(=O)N[C@@H](CO)C(=O)N[C@@H](Cc1cc2ccccc2[nH]1)C(=O)N[C@@H](CO)C(=O)N[C@@H](CS)C(N)=O
